Test results reported in ChEMBL document CHEMBL1134981, “Pyrrolidine and piperidine analogues of SC-57461A as potent, orally active inhibitors of leukotriene A(4) hydrolase” (Bioorg Med Chem Lett, 2002).

What was measured:
Homo sapiens = organism: Homo sapiens; test: Inhibition of leukotriene B4 production in human whole blood; format: functional
Mus musculus [1] = test: Ex vivo inhibition of LTB4 production in mouse whole blood at 10 mg/kg; format: functional
[2] = molecular target: T1, Leukotriene A-4 hydrolase (Homo sapiens, UniProt P09960); test: Inhibition of leukotriene A4 hydrolase in human recombinant assay
T1 sequence (P09960 whole entry): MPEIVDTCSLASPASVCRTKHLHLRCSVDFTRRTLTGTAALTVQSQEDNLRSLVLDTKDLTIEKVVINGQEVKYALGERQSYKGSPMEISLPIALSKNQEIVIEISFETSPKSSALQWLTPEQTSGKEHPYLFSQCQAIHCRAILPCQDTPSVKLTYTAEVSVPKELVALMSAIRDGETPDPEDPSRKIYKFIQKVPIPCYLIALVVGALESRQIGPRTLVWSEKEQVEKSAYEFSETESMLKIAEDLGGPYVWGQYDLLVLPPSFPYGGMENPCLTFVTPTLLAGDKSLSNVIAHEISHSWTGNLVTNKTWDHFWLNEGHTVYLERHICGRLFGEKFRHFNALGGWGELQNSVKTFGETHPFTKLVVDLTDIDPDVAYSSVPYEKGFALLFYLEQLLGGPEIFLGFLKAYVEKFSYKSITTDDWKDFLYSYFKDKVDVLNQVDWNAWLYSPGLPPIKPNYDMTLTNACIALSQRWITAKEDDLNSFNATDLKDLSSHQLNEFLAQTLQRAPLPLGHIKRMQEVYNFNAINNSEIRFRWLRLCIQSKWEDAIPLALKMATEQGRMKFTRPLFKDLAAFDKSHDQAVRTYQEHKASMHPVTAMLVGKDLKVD

Mus musculus [3] = organism: Mus musculus; test: Oral potency for Ex vivo inhibition of LTB4 production in mouse whole blood; format: functional
Mus musculus [4] = organism: Mus musculus; test: Ex vivo inhibition of LTB4 production in mouse whole blood; format: functional
Rattus norvegicus [5] = organism: Rattus norvegicus; test: The compound was tested for oral efficacy in rat reversed passive dermal Arthus model; 3-10; format: functional
Rhesus monkey = test: The compound showed excellent potency when dosed orally, inhibiting the production of Leukotriene B4; format: functional, Cercopithecidae; details: Macaca mulatta, po
Rattus norvegicus [6] = test: The compound was orally efficacious in rat peritoneal Leukotriene B4 production; format: functional; details: po

Compound	IC50 (Homo sapiens) [nM]	inhibition in vivo at 10 mg/kg (Mus musculus [1]; Mus musculus, Blood) [%]	further results
N#CC1CCN(CCOc2ccc(Cc3ccccc3)cc2)CC1		56	
OC1CCN(CCOc2ccc(Cc3ccccc3)cc2)C1 (configuration not stated)		50	IC50 [2]: 30 nM
COC(=O)CC1CC2CC1CN2CCOc1ccc(Cc2ccccc2)cc1 (stereo in doubt; 27)			Inhibition (Mus musculus [1]; 10 mg/kg): 70%
COC(=O)CC1CC2CC1CN2CCOc1ccc(Cc2ccccc2)cc1 (stereo in doubt; 26)		80	ED90 (Mus musculus [3]): ≥ 10 mg/kg
CN(CCCOc1ccc(Cc2ccccc2)cc1)CCC(=O)O	49	> 98	ED90 (Mus musculus [3]): 1 mg/kg
CC(=O)NC1CCN(CCOc2ccc(Cc3ccccc3)cc2)CC1	180		
c1ccc(Cc2ccc(OCCN3CCC(c4nnn[nH]4)CC3)cc2)cc1			ED90 (Mus musculus [3]): 3 mg/kg
OCC1CCN(CCOc2ccc(Cc3ccccc3)cc2)CC1	580	85	IC50 [2]: 52 nM
CNC(=O)C1CCN(CCOc2ccc(Cc3ccccc3)cc2)CC1	130	92	
NC(=O)NC1CCN(CCOc2ccc(Cc3ccccc3)cc2)CC1	440		
c1ccc(Cc2ccc(OCCN3CCCC3)cc2)cc1	120		
c1ccc(Cc2ccc(OCCN3CCCCC3)cc2)cc1		8	
COC(=O)C1CC2CC1CN2CCOc1ccc(Cc2ccccc2)cc1 (configuration not stated)	200	50	IC50 [2]: 47 nM
NC(=O)N1CCN(CCOc2ccc(Cc3ccccc3)cc2)CC1	2400		

Further lines, with some results ahead:

IC50 (Homo sapiens) [nM]	Compound	inhibition in vivo at 10 mg/kg (Mus musculus [1]; Mus musculus, Blood) [%]	further results
360	NC(=O)C1CCN(CCOc2ccc(Cc3ccccc3)cc2)C1 (configuration not stated)	60	
700	CCOC(=O)CNC(=O)C1CCN(CCOc2ccc(Cc3ccccc3)cc2)CC1	91	IC50 [2]: 110 nM; ED90 (Mus musculus [3]): 3 mg/kg
290	O=C(O)C1CCN(CCOc2ccc(Cc3ccccc3)cc2)CC1		IC50 [2]: 280 nM; inhibition in vivo at 10 mg/kg (Mus musculus [1]): 80%
1860	COC(=O)[C@@H]1CCCN1CCOc1ccc(Cc2ccccc2)cc1	0	
420	CC(=O)NC1CCN(CCOc2ccc(Cc3ccccc3)cc2)C1 (configuration not stated)	22	
350	NC(=O)NC1CCN(CCOc2ccc(Cc3ccccc3)cc2)C1 (configuration not stated)		
820	CCOC(=O)C1CCN(CCOc2ccc(Cc3ccccc3)cc2)CC1		IC50 [2]: 1800 nM; ED90 (Mus musculus [4]): 3 mg/kg; ED90 (Rattus norvegicus [5]): 3 mg/kg; ED90 (Rhesus monkey): < 10 mg/kg; ED50 (Rattus norvegicus [6]): 3 mg/kg; ED90 (Rattus norvegicus [6]): 30 mg/kg
240	COC(=O)CC1CCN(CCOc2ccc(Cc3ccccc3)cc2)C1 (configuration not stated)	75	ED90 (Mus musculus [3]): 10 mg/kg
400	NC(=O)CC1CCN(CCOc2ccc(Cc3ccccc3)cc2)C1 (configuration not stated)	4	
640	NC(=O)C1CCN(CCOc2ccc(Cc3ccccc3)cc2)CC1	95	IC50 [2]: 130 nM; ED90 (Mus musculus [3]): 3 mg/kg
290	NC1CCN(CCOc2ccc(Cc3ccccc3)cc2)C1 (configuration not stated)		
230	COC(=O)C1CCN(CCOc2ccc(Cc3ccccc3)cc2)C1 (configuration not stated)		
1650	CCOC(=O)C1CCCN(CCOc2ccc(Cc3ccccc3)cc2)C1 (configuration not stated)		IC50 [2]: > 3000 nM
